The values that follow are results of earlier work, collected in patent US20230117831A1, “MULTI-FUNCTIONAL CHIMERIC MOLECULES” (THE BROAD INSTITUTE, INC., priority 2020, published 2023).

Targets include PKC delta (Homo sapiens, UniProt Q05655); PKC beta (Homo sapiens, UniProt P05771); PKC gamma (Homo sapiens, UniProt P05129); VEGFR (Homo sapiens, UniProt P35968).
What all share (conditions): cited from earlier work
For data set [1], the target named is T1, PKCalpha (Homo sapiens, UniProt P17252).
Data set [2] deals with T1, PKCalpha. This is another data set of the same source.
A further data set has as its target T2, PKC epsilon (Homo sapiens, UniProt Q02156).
T2 sequence (Q02156 1-737): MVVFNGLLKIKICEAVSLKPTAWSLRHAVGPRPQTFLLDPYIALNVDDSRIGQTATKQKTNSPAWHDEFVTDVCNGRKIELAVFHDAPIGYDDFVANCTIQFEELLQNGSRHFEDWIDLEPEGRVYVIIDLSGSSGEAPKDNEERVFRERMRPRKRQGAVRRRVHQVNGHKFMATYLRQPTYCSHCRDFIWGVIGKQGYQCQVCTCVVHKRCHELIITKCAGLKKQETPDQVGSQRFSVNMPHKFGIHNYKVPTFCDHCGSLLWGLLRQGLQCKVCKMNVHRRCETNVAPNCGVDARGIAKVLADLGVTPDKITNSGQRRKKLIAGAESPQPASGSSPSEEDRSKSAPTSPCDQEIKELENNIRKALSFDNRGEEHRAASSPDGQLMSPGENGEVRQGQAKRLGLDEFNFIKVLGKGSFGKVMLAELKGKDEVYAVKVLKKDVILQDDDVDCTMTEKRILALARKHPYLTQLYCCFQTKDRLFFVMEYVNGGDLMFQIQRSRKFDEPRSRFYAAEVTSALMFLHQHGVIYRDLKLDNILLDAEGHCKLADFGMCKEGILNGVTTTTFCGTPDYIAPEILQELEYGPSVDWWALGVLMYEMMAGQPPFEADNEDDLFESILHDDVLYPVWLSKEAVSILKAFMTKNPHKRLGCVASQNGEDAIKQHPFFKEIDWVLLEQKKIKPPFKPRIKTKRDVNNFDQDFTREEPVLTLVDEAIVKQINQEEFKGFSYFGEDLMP

Data set [3] has as its system breast carcinoma cell lines MCF-7 and MDA-MB-231.

Sequence of PKC beta (P05771 whole entry): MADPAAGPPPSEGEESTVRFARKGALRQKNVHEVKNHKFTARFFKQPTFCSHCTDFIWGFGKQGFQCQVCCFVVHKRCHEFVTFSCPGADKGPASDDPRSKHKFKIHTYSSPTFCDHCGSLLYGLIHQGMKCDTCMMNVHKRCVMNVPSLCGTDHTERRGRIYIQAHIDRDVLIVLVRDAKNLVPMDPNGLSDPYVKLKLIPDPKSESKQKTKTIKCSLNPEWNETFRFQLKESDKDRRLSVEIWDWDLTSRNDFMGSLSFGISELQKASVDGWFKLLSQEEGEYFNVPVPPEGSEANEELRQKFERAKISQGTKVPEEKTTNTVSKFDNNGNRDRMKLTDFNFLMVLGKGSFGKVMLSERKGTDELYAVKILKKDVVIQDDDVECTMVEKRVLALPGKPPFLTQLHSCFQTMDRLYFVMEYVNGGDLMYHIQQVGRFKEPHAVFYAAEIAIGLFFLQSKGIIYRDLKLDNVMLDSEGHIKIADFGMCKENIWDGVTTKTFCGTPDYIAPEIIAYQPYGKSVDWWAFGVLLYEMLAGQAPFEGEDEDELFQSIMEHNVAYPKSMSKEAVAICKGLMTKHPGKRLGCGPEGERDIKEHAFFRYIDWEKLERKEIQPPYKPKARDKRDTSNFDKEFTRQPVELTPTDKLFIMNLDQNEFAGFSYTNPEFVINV
Sequence of PKC delta (Q05655 whole entry): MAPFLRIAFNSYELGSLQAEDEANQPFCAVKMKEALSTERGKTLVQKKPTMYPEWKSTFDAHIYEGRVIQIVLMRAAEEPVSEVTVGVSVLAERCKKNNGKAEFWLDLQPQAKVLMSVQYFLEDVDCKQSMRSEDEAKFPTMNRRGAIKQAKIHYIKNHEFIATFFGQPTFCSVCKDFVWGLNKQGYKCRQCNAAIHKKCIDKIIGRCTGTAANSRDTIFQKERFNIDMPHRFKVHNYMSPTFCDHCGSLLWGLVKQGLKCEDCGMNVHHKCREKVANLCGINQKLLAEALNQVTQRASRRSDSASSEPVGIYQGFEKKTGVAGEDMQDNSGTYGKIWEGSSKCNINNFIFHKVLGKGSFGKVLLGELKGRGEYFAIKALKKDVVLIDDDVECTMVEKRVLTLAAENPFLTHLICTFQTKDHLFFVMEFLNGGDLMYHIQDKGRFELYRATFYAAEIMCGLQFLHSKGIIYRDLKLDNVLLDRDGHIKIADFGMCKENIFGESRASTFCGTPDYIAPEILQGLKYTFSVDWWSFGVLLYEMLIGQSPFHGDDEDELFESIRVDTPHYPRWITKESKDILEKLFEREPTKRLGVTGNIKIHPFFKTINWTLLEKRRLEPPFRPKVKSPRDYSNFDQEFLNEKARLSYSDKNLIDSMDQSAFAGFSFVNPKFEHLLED
Sequence of VEGFR (P35968 806-1171 limits assumed): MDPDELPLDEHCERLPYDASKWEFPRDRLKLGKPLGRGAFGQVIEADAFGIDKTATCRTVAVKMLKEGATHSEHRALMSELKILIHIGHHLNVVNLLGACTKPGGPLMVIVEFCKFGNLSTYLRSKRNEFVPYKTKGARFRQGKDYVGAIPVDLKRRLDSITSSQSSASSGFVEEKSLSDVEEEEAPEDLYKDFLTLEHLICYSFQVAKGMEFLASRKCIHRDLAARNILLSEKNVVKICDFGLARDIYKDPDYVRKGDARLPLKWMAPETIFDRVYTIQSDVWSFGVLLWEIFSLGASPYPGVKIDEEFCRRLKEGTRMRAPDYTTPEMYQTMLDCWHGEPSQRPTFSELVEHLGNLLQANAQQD

For orientation: Kd means the free concentration of one partner at which half of the binding sites on the other are occupied at equilibrium, for simple one-to-one binding. In the case of `CCCCCCCCC#Cc1ccc2c(c1)C[C@@H](CO)NC(=O)[C@H](C(C)C)N2C`, the Kd was 122 nM at PKC delta; 14.7 nM at PKCalpha [1]; 17.4 nM at PKC beta; 40.7 nM at PKC gamma; 142 nM at PKC epsilon. At PKCalpha [2], the “down-regulation of PKCalpha” value is reported as “preferentially down-regulates PKCalpha”. Also, the “antiproliferative activity against breast carcinoma” value in data set [3] is listed as “antiproliferative activity”.

For the compound `COc1cc2nccc(Oc3ccc(NC(=O)NC4CC4)c(Cl)c3)c2cc1C(N)=O` [Lenvatinib], the Residence time at VEGFR was 17 min.
